Assay [1] has as its system HepG2-A16-CD81EGFP cells. The note with it: for IC50: read-out: Tox_IC50, HepG2 cytotoxicity.
The subject of assay [2] is Plasmodium berghei (Pb-Luc) exoerythrocytic-stage parasites. The note with it: for IC50: read-out: PbLuc_IC50.
Setting [3] is: sheet 2nd round, maximal inhibition in dose response.
Setting [4] is: first series of columns, fraction of control.
Setting [5] is: sheet 2nd round, Pb-Luc exoerythrocytic stage, 10-point dose response, top concentration 10.
Setting [6] is: second series of columns (replicate), fraction of control.
[7] abbreviates: first series, fraction of control.
Setting [8] is: second series, fraction of control.
Where [9] appears, read: 2nd round, maximal inhibition in dose series.

The structures appear in SMILES notation. Where two headings read alike, the source gives them in different places.

Turning to `CC(C)NC(=O)NCC[C@@H]1CC[C@H](NS(=O)(=O)c2ccc(Oc3ccccc3)cc2)[C@@H](CO)O1` [BRD-K66184091-001-01-6], the IC50 in assay [1] (sheet 2nd round) is over 10 µM. Further, the “Tox_max_inhibition (%)” value in assay [1] (setting [3]) is 7%. Further, in assay [2] (setting [4]), the “normalized signal at concentration 0.000508053” value stood at 0.909, the “normalized signal at concentration 0.00152416” value is 1.056, the “normalized signal at concentration 0.00457247” value is recorded as 1.03 and the “normalized signal at concentration 0.0137174” value is listed as 0.8503. In addition, in assay [2] (setting [4]), the “normalized signal at concentration 0.0411523” value is 0.8577, the “normalized signal at concentration 0.123457” value came out at 0.9757, the “normalized signal at concentration 0.37037” value is 0.9475 and the “normalized signal at concentration 1.11111” value is 1.003. In assay [2] (setting [4]), the “normalized signal at concentration 3.33333” value is 1.282 and the “normalized signal at concentration 10” value stood at 1.243. In addition, the IC50 in assay [2] (setting [5]) was over 10 µM. In assay [2] (setting [6]), the “normalized signal at concentration 0.000508053” value is on record as 0.9487, the “normalized signal at concentration 0.00152416” value was 0.9281, the “normalized signal at concentration 0.00457247” value worked out at 0.7932 and the “normalized signal at concentration 0.0137174” value was determined as 0.7902. In assay [2] (setting [6]), the “normalized signal at concentration 0.0411523” value came to 0.9772, the “normalized signal at concentration 0.123457” value is given as 0.9341, the “normalized signal at concentration 0.37037” value is given as 0.8543 and the “normalized signal at concentration 1.11111” value worked out at 0.8244. In assay [2] (setting [6]), the “normalized signal at concentration 3.33333” value is listed as 0.9837 and the “normalized signal at concentration 10” value is recorded as 0.9187. In assay [2] (setting [3]), the “PbLuc_max_inhibition (%)” value worked out at 21%.
Regarding `COc1cccc(S(=O)(=O)N2CCCCN3[C@H](CO)[C@H](c4ccc(C#CCC(C)C)cc4)[C@H]3C2)c1` [BRD-K69197522-001-01-4], the IC50 in assay [1] (sheet 2nd round) was over 10 µM. Further, the “Tox_max_inhibition (%)” value in assay [1] (setting [3]) is reported as 6.65%. Further, in assay [2] (setting [4]), the “normalized signal at concentration 0.000508053” value was found to be 0.7703, the “normalized signal at concentration 0.00152416” value was determined as 0.9681, the “normalized signal at concentration 0.00457247” value is 1.135 and the “normalized signal at concentration 0.0137174” value came to 0.9046. For the same compound, in assay [2] (setting [4]), the “normalized signal at concentration 0.0411523” value came to 0.9718, the “normalized signal at concentration 0.123457” value turned out to be 0.7468, the “normalized signal at concentration 0.37037” value stood at 1.034 and the “normalized signal at concentration 1.11111” value was determined as 0.9136. Further, in assay [2] (setting [4]), the “normalized signal at concentration 3.33333” value worked out at 0.9728 and the “normalized signal at concentration 10” value is recorded as 0.6517. Also, in assay [2] (setting [5]), the IC50 is over 10 µM. In assay [2] (setting [6]), the “normalized signal at concentration 0.000508053” value came to 0.9237, the “normalized signal at concentration 0.00152416” value is 0.8984, the “normalized signal at concentration 0.00457247” value turned out to be 1.009 and the “normalized signal at concentration 0.0137174” value turned out to be 0.9117. Moreover, in assay [2] (setting [6]), the “normalized signal at concentration 0.0411523” value came out at 0.9735, the “normalized signal at concentration 0.123457” value stood at 1.068, the “normalized signal at concentration 0.37037” value was found to be 0.8113 and the “normalized signal at concentration 1.11111” value stood at 0.8704. Moreover, in assay [2] (setting [6]), the “normalized signal at concentration 3.33333” value amounted to 1.117 and the “normalized signal at concentration 10” value was found to be 0.6736. In assay [2] (setting [3]), the “PbLuc_max_inhibition (%)” value is on record as 35%.
With `C[C@H](CO)N1C[C@H](C)[C@@H](CN(C)C(=O)Nc2ccc(C(F)(F)F)cc2)Oc2c(NC(=O)c3ccc(-c4nccs4)cc3)cccc2C1=O` [BRD-K70940716-001-01-0], the IC50 in assay [1] (sheet 2nd round) was over 10 µM. Also, the “Tox_max_inhibition (%)” value in assay [1] (setting [3]) stood at 7%. In assay [2] (first series of dose-response columns, fraction of control), the “normalized signal at concentration 10” value came to 1.176. Besides, in assay [2] (setting [7]), the “normalized signal at concentration 0.000508053” value is listed as 0.7879, the “normalized signal at concentration 0.00152416” value stood at 0.8471, the “normalized signal at concentration 0.00457247” value was 0.871 and the “normalized signal at concentration 0.0137174” value amounted to 0.8913. Also, in assay [2] (setting [7]), the “normalized signal at concentration 0.0411523” value was 0.831, the “normalized signal at concentration 0.123457” value is listed as 0.9514, the “normalized signal at concentration 0.37037” value amounted to 0.8506 and the “normalized signal at concentration 1.11111” value turned out to be 0.9296. In addition, in assay [2] (setting [7]), the “normalized signal at concentration 3.33333” value was found to be 1.136. Also, the IC50 in assay [2] (sheet 2nd round, Broad compounds, dose response) is over 10 µM. Also, the “normalized signal at concentration 10” value in assay [2] (second series of dose-response columns, fraction of control) stood at 1.096. For the same compound, in assay [2] (setting [8]), the “normalized signal at concentration 0.000508053” value was determined as 1.058, the “normalized signal at concentration 0.00152416” value amounted to 0.9924, the “normalized signal at concentration 0.00457247” value is listed as 0.8277 and the “normalized signal at concentration 0.0137174” value is 1.075. Further, in assay [2] (setting [8]), the “normalized signal at concentration 0.0411523” value was 1.139, the “normalized signal at concentration 0.123457” value amounted to 0.9792, the “normalized signal at concentration 0.37037” value was determined as 1.201 and the “normalized signal at concentration 1.11111” value is on record as 1.005. The “normalized signal at concentration 3.33333” value in assay [2] (setting [8]) was found to be 1.1649. Also, in assay [2] (setting [3]), the “PbLuc_max_inhibition (%)” value was 21%.
In the case of `O=C(Cc1ccccn1)N1CC2(C1)[C@H](c1ccccc1)[C@H](CO)N2C(=O)c1ccncc1` [BRD-K71274172-001-01-0], the “Tox_max_inhibition (%)” value in assay [1] (setting [9]) is listed as 8%. The IC50 is over 10 µM in assay [1] (2nd round, unit inferred) and over 10 µM in assay [2] (2nd round, Broad DOS compounds, unit not printed (dose series head 10 to 0.000508053)). For the same compound, in assay [2] (setting [9]), the “PbLuc_max_inhibition (%)” value was found to be 33%. Besides, the “normalized signal at 0.000508053 (first series)” value in assay [2] (concentration 0.000508053, first replicate series, fraction of control) was found to be 0.9199. The “normalized signal at 0.000508053 (second series)” value in assay [2] (concentration 0.000508053, second replicate series, fraction of control) is on record as 0.7398. For the same compound, the “normalized signal at 0.00152416 (first series)” value in assay [2] (concentration 0.00152416, first replicate series, fraction of control) is recorded as 1.024. In assay [2] (concentration 0.00152416, second replicate series, fraction of control), the “normalized signal at 0.00152416 (second series)” value came out at 0.9453. The “normalized signal at 0.00457247 (first series)” value in assay [2] (concentration 0.00457247, first replicate series, fraction of control) is 1.112. In addition, the “normalized signal at 0.00457247 (second series)” value in assay [2] (concentration 0.00457247, second replicate series, fraction of control) stood at 0.9743. For the same compound, the “normalized signal at 0.0137174 (first series)” value in assay [2] (concentration 0.0137174, first replicate series, fraction of control) was found to be 0.9082. In addition, the “normalized signal at 0.0137174 (second series)” value in assay [2] (concentration 0.0137174, second replicate series, fraction of control) was determined as 0.6716. Further, in assay [2] (concentration 0.0411523, first replicate series, fraction of control), the “normalized signal at 0.0411523 (first series)” value is 1.078. The “normalized signal at 0.0411523 (second series)” value in assay [2] (concentration 0.0411523, second replicate series, fraction of control) is on record as 0.9171. The “normalized signal at 0.123457 (first series)” value in assay [2] (concentration 0.123457, first replicate series, fraction of control) came to 1.09. In assay [2] (concentration 0.123457, second replicate series, fraction of control), the “normalized signal at 0.123457 (second series)” value was found to be 1.008. Also, the “normalized signal at 0.37037 (first series)” value in assay [2] (concentration 0.37037, first replicate series, fraction of control) turned out to be 0.9519. Moreover, the “normalized signal at 0.37037 (second series)” value in assay [2] (concentration 0.37037, second replicate series, fraction of control) is recorded as 0.8993. In assay [2] (concentration 1.11111, first replicate series, fraction of control), the “normalized signal at 1.11111 (first series)” value stood at 1.039. Moreover, the “normalized signal at 1.11111 (second series)” value in assay [2] (concentration 1.11111, second replicate series, fraction of control) is given as 0.6979. In assay [2] (concentration 3.33333, first replicate series, fraction of control), the “normalized signal at 3.33333 (first series)” value was 0.9642. Further, in assay [2] (concentration 3.33333, second replicate series, fraction of control), the “normalized signal at 3.33333 (second series)” value is 0.9744. Further, the “normalized signal at 10 (first series)” value in assay [2] (concentration 10, first replicate series, fraction of control) came out at 1.127. In assay [2] (concentration 10, second replicate series, fraction of control), the “normalized signal at 10 (second series)” value is 0.8663.

The values are drawn from article PMC4890880 (ACS infectious diseases, 2016).
